The target of experiment [1] is T1, recombinant human enzyme CK-1ε (Homo sapiens, UniProt P49674).
T1 construct: purchased Invitrogen
Description: Enzyme inhibition assay, Luminometer Kinase-GLO method, CK-1ε. Type of experiment: biochemical. Particulars: for IC50: casein substrate, 4 μM ATP, 60 minutes at 30° C., read-out: Inhibitory Concentration 50 (IC50) CK-1ε. On the procedure: (§1) Enzyme inhibition assays were performed using the Luminometer Kinase-GLO® method. Recombinant human enzyme CK-1δ was purchased from Millipore Iberica SAU and recombinant human enzyme CK-1ε was purchased from Invitrogen. The phosphorylation substration chosen was casein. The Luminescent Kinase Kit (catalogue no. V6711) was obtained from Promega. ATP and other reagents were purchased from Sigma-Aldrich (St. Louis, Mo.).
(§2) The assays were conducted in buffer using 96-well plates. In a typical assay: 10 μL of the test compound (dissolved in dimethylsulfoxide at a concentration of 1 mM and, in turn, dissolved in buffer to the required concentration for the experiment) and 10 μL (16 ng) of the CK-1δ enzyme or 10 μL (50 ng) of the CK-1ε enzyme row were added to each well followed by 20 μL of buffer containing 0.1% casein as substrate and 4 μM of ATP. The assay buffer contained: 50 mM HEPES, pH 7.5; 0.01% Brij-35; 10 mM MgCl2; 1 mM EGTA and 0.01% NaN3. […] After incubating for 60 minutes at 30° C., the enzymatic reaction was stopped using 40 μL of Kinase-GLO® reagent. Luminescence was measured after ten minutes using a FLUOstar Optima (BMG Labtechnologies GmbH, Offenburg, Germany) multimode reader. The activity was proportional to the difference between the total and consumed ATP. Inhibition activities were calculated in accordance with the maximum activity measured in the absence of inhibitor. IC50 is defined as the concentration of each compound that reduces enzyme activity by 50% with respect to that obtained without inhibitor.

The target in experiment [2] is T2, recombinant human enzyme CK-1δ (Homo sapiens, UniProt P48730).
T2 construct: purchased Millipore Iberica SAU
Description: Enzyme inhibition assay, Luminometer Kinase-GLO method, CK-1δ. Type of experiment: biochemical. Particulars: casein substrate, 4 μM ATP, 60 minutes at 30° C.; read-out: Inhibitory Concentration 50 (IC50) CK-1δ. On the procedure: as §1, §2

We go through 29 compounds from US9592224B2, “Substituted benzothiazoles and therapeutic uses thereof for the treatment of human diseases” (CONSEJO SUPERIOR DE INVESTIGACIONES CIENTÍFICAS, priority 2013, dated 2017).

T1 sequence (P49674 whole entry): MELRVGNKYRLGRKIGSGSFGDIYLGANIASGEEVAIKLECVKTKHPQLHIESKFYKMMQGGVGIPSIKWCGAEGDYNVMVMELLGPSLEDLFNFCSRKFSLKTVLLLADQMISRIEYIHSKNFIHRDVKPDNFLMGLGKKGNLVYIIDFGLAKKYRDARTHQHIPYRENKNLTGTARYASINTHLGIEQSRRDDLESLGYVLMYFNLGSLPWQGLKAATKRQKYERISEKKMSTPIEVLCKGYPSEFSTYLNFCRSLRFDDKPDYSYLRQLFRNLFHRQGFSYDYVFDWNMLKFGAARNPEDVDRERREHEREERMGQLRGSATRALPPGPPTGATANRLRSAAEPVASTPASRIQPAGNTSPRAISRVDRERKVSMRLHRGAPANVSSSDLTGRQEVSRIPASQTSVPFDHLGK
T2 sequence (P48730 whole entry): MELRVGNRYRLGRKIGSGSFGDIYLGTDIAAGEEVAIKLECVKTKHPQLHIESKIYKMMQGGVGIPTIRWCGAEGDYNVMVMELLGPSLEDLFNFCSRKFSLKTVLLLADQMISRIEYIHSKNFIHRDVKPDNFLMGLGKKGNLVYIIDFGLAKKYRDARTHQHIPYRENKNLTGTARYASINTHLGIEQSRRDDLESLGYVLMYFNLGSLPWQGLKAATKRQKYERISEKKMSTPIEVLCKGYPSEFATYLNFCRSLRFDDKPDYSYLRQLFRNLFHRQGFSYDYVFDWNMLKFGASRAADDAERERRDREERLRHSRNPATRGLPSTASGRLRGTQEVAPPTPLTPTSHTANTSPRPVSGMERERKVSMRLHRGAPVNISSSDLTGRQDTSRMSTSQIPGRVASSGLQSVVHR

Turning to `COc1ccc(CC(=O)Nc2nc3ccc(Cl)cc3s2)cc1` [Compound 2, N-(6-chlorobenzothiazole-2-yl)-2-(4-methoxyphenyl)acetamide], the IC50 in experiment [1] is 500 nM; in experiment [2], 70 nM.
For `O=C(Cc1ccccc1Cl)Nc1nc2ccc(C(F)(F)F)cc2s1` [Compound 7, N-(6-trifluoromethylbenzothiazole-2-yl)-2-(2-chlorophenyl)acetamide], in that order: 7730 nM and 68 nM.
In the same order, the values of `O=C(Cc1ccc(Cl)c(Cl)c1)Nc1nc2ccc(C(F)(F)F)cc2s1` [Compound 9, N-(6-trifluoromethylbenzothiazole-2-yl)-2-(3,4-dichlorophenyl)acetamide] are 870 nM and 56 nM.
`COc1cc(CC(=O)Nc2nc3ccc(OC(F)(F)F)cc3s2)cc(OC)c1OC` [Compound 11, N-(6-trifluoromethoxybenzothiazole-2-yl)-2-(3,4,5-trimethoxyphenyl)acetamide]: the figures for the IC50 in experiment [1] and in experiment [2] were 940 nM and 79 nM, respectively.
In the same order, the values of `O=C(Cc1cccc(C(F)(F)F)c1)Nc1nc2ccc(C(F)(F)F)cc2s1` [Compound 13, N-(6-trifluoromethylbenzothiazole-2-yl)-2-(3-(trifluoromethyl)phenyl)acetamide] are 720 nM and 87 nM.
In the same order, the values of `O=C(Nc1nc2ccc(C(F)(F)F)cc2s1)C(c1ccccc1)c1ccccc1` [Compound 15, N-(6-trifluoromethylbenzothiazole-2-yl)-2,2-diphenylacetamide] are 2750 nM and 260 nM.
Regarding `COc1ccc2nc(NC(=O)C(c3ccccc3)c3ccccc3)sc2c1` [Compound 16, N-(6-methoxybenzothiazole-2-yl)-2,2-diphenylacetamide], the IC50 in experiment [1] turned out to be 5070 nM; in experiment [2], 840 nM.
For `O=C(CCc1ccccc1)Nc1nc2ccc([N+](=O)[O-])cc2s1` [Compound 17, N-(6-nitrobenzothiazole-2-yl)-3-phenylpropanamide], the IC50 in experiment [1] was determined as 9400 nM; in experiment [2] it was 570 nM.
In the same order, the values of `O=C(Cc1ccc(F)cc1)Nc1nc2ccccc2s1` [Compound 18, N-(benzothiazole-2-yl)-2-(4-fluorophenyl)acetamide] are 3080 nM and 530 nM.
In the same order, the values of `COc1ccc(CC(=O)Nc2nc3ccc(OC)cc3s2)cc1` [Compound 19, N-(6-methoxybenzothiazole-2-yl)-2-(4-methoxyphenyl)acetamide] are 2410 nM and 570 nM.
In the same order, the values of `COc1ccc2nc(NC(=O)Cc3ccc(Cl)cc3)sc2c1` [Compound 21, N-(6-methoxybenzothiazole-2-yl)-2-(4-chlorophenyl)acetamide] are 8750 nM and 750 nM.
As to `COc1ccc2nc(NC(=O)Cc3cccc(Cl)c3)sc2c1` [Compound 22, N-(6-methoxybenzothiazole-2-yl)-2-(3-chlorophenyl)acetamide], the IC50 in experiment [1] was found to be 3730 nM; in experiment [2] it was 530 nM.
For `O=C(Cc1cccc(Cl)c1)Nc1nc2ccc(OC(F)(F)F)cc2s1` [Compound 23, N-(6-trifluoromethoxybenzothiazole-2-yl)-2-(3-chlorophenyl)acetamide], in that order: 1020 nM and 540 nM.
For `O=C(Nc1cccc(Cl)c1)Nc1nc2ccc(C(F)(F)F)cc2s1` [Compound 24, N-(6-trifluoromethylbenzothiazole-2-yl)-N′-(3-chlorophenyl)urea], in that order: 11000 nM and 740 nM.
In the same order, the values of `COc1cccc(CC(=O)Nc2nc3ccc(OC)cc3s2)c1` [Compound 25, N-(6-methoxybenzothiazole-2-yl)-2-(3-methoxyphenyl)acetamide] are 2430 nM and 420 nM.
With `CCOc1ccc2nc(NC(=O)Cc3cccc(OC)c3)sc2c1` [Compound 26, N-(6-ethoxybenzothiazole-2-yl)-2-(3-methoxyphenyl)acetamide], the results for the IC50 in experiment [1] and in experiment [2] were 8970 nM and 990 nM, respectively.
For `COc1ccccc1CC(=O)Nc1nc2ccc(OC(F)(F)F)cc2s1` [Compound 27, N-(6-trifluoromethoxybenzothiazole-2-yl)-2-(2-methoxyphenyl)acetamide], in that order: 7390 nM and 620 nM.
For `O=C(Cc1ccc(Cl)c(Cl)c1)Nc1nc2ccc(OC(F)(F)F)cc2s1` [Compound 28, N-(6-trifluoromethoxybenzothiazole-2-yl)-2-(3,4-dichlorophenyl)acetamide], the results for the IC50 in experiment [1] and in experiment [2] were 930 nM and 590 nM, respectively.
In the same order, the values of `COc1ccc(OC)c(CC(=O)Nc2nc3ccc(C(F)(F)F)cc3s2)c1` [Compound 29, N-(6-trifluoromethylbenzothiazole-2-yl)-2-(2,5-dimethoxyphenyl)acetamide] are 3140 nM and 190 nM.
As for `COc1ccccc1CC(=O)Nc1nc2ccc(Cl)cc2s1` [Compound 31, N-(6-chlorobenzothiazole-2-yl)-2-(2-methoxyphenyl)acetamide], the IC50 in experiment [1] turned out to be 1150 nM; in experiment [2], 320 nM.
`COc1ccccc1CC(=O)Nc1nc2ccc(Br)cc2s1` [Compound 32, N-(6-bromobenzothiazole-2-yl)-2-(2-methoxyphenyl)acetamide]: the IC50 in experiment [1] amounted to 1030 nM; in experiment [2], 260 nM.
For `O=C(Nc1nc2ccccc2s1)C(c1ccccc1)c1ccccc1` [Compound 33, N-(benzothiazole-2-yl)-2,2-diphenylacetamide], in that order: 7310 nM and 1960 nM.
Take `O=C(CC(c1ccccc1)c1ccccc1)Nc1nc2ccccc2s1` [Compound 34, N-(benzothiazole-2-yl)-3,3-diphenylpropanamide]: the IC50 in experiment [1] was found to be 9730 nM; in experiment [2] it was 2500 nM.
For the compound `O=C(COCc1ccccc1)Nc1nc2ccccc2s1` [Compound 35, N-(benzothiazole-2-yl)-2-benzyloxyacetamide], in experiment [1], the inhibition at 10 µM was found to be 48%. Besides, the IC50 in experiment [2] was found to be 4370 nM.
In the same order, the values of `O=C(CNC(=O)c1ccccc1)Nc1nc2ccccc2s1` [Compound 36, N-[2-(benzothiazole-2-ylamine)-2-oxoethyl]benzamide] are 48% and 7290 nM.
Turning to `O=C(CNC(=O)C(c1ccccc1)c1ccccc1)Nc1nc2ccccc2s1` [Compound 37, N-(benzothiazole-2-yl)-2-(2,2-diphenylacetamide)acetamide], the IC50 in experiment [1] turned out to be 13000 nM; in experiment [2], 1930 nM.
Regarding `O=C(Cc1ccccc1)NCC(=O)Nc1nc2ccccc2s1` [Compound 38, N-(benzothiazole-2-yl)-2-(2-phenylacetamide)acetamide], the inhibition at 10 µM in experiment [1] amounted to 37%. The IC50 in experiment [2] was determined as 6330 nM.
`CCOc1ccc2nc(NC(=O)C(c3ccccc3)c3ccccc3)sc2c1` [Compound 39, N-(6-ethoxybenzothiazole-2-yl)-2,2-diphenylacetamide]: the results for the IC50 in experiment [1] and in experiment [2] were 7860 nM and 2820 nM, respectively.
Take `CCOC(=O)c1ccc2nc(NC(=O)C(c3ccccc3)c3ccccc3)sc2c1` [Compound 40, Carboxylate[2-(2,2-diphenylacetamide)benzothiazole-6-yl]ethyl]: the figures for the IC50 in experiment [1] and in experiment [2] were 1600 nM and 6680 nM, respectively.
